The Bradley open melting point set (2014)
Values joined by “and” are separate entries in the source; they are usually repeats but may differ in a detail not shown here. Equal entries are not always repeated.

Point of comparison: O=Cc1ccc(B(O)O)cc1C(F)(F)F [4-formyl-3-(trifluoromethyl)benzeneboronic acid], melting point 201 °C. Against it:
- NNC(=O)c1ccc(Br)cc1 [4-bromobenzhydrazide] — lower, 168 °C
- O=C(O)c1ccc(Br)cc1 [4-bromobenzoic acid] — higher, 253 °C
- O=C(O)c1ccc(Br)c(C(=O)O)c1 [4-bromoisophthalic acid] — higher, 299 °C
- CCOc1ccc(Br)cc1 [4-bromophenetole] — lower, 4 °C
- O=C(O)Cc1ccc(Br)cc1 [4-bromophenylacetic acid] — lower, 117 °C
- CSc1ccc(Br)cc1 [4-bromothioanisole] — lower, 39 °C
- CCCCc1ccc(C(=O)O)cc1 [4-butylbenzoic_acid] — lower, 100 °C
- OB(O)c1ccc(Cl)cc1C(F)(F)F [4-chloro-2-(trifluoromethyl)benzeneboronic acid] — lower, 181 °C
- COc1ccc(Cl)cc1I [4-chloro-2-iodoanisole] — lower, 46 °C
- COc1cc(Cl)ccc1O [4-chloro-2-methoxyphenol] — lower, 17 °C
- Cc1cc(Cl)cc([N+](=O)[O-])c1N [4-chloro-2-methyl-6-nitroaniline] — lower, 122 °C
- Cc1cc(C(=O)O)ccc1Cl [4-chloro-3-methylbenzoic acid] — higher, 214 °C
- COc1ccc(Cl)c([N+](=O)[O-])c1 [4-chloro-3-nitroanisole] — lower, 44 °C
- N#Cc1ccc(Cl)c([N+](=O)[O-])c1 [4-chloro-3-nitrobenzonitrile] — lower, 100 °C
- Clc1cc(N2CCCC2)ncn1 [4-chloro-6-(1-pyrrolidinyl)pyrimidine] — lower, 97 °C
- CCc1nc(N)nc(Cl)c1C [4-chloro-6-ethyl-5-methylpyrimidin-2-amine] — lower, 139 °C
- ON=C(Cl)c1ccc(Cl)cc1 [4-chloro-N-hydroxybenzenecarboximidoyl chloride] — higher, 278 °C
- N#Cc1ccc(Cl)cc1 [4-chlorobenzonitrile] — lower, 92 °C
- Clc1ccc(C(Cl)(Cl)Cl)cc1 [4-chlorobenzotrichloride] — lower, 6 °C
- FC(F)(F)c1ccc(Cl)cc1 [4-chlorobenzotrifluoride] — lower, -36 °C
- OCc1ccc(Cl)cc1 [4-chlorobenzyl alcohol] — lower, 71 °C
- N#CCc1ccc(Cl)cc1 [4-chlorobenzyl_cyanide] — lower, 31 °C
- Clc1ccc(-c2ccccc2)cc1 [4-chlorobiphenyl] — lower, 78 °C
- O=[N+]([O-])c1ccc(Cl)cc1 [4-chloronitrobenzene] — lower, 83.5 °C
- O=C(O)Cc1ccc(Cl)cc1 [4-chlorophenylacetic acid] — lower, 105 °C
- Oc1ccc(Cl)c(O)c1 [4-chlororesorcinol] — lower, 107 °C
- OC1CCOc2ccccc21 (centres undefined) [4-chromanol] — lower, 40 °C
- CCCCCCCc1ccc(-c2ccc(C#N)cc2)cc1 [4-cyano-4'-n-heptylbiphenyl] — lower, 31 °C
- N#Cc1ccc(C(N)=O)cc1 [4-cyanobenzamide] — higher, 227 °C
- N#Cc1ccc(N=C=S)cc1 [4-cyanophenyl isothiocyanate] — lower, 120 °C
- Nc1ccc(C2CCCCC2)cc1 [4-cyclohexylaniline] — lower, 54 °C
- OB(O)c1ccc(C2CCCCC2)cc1 [4-cyclohexylbenzeneboronic acid] — higher, 220 °C
- CCN(CC)c1ccc(C=NO)cc1 [4-diethylaminobenzaldoxime] — lower, 96 °C
- CN(C)c1ccc(/C=C/C=O)cc1 [4-dimethylamino cinnamaldehyde] — lower, 136 °C
- CN(C)c1ccc(C=O)cc1 [4-dimethylaminobenzaldehyde] — lower, 74.5 °C
- CCOc1ccc(C=O)cc1 [4-ethoxybenzaldehyde] — lower, 14 °C
- CCOc1ccc(C#N)cc1 [4-ethoxybenzonitrile] — lower, 62 °C
- CCC1=C(C)N=NC1C (centres undefined) [4-ethyl-3,5-dimethyl-1H-pyrazole] — lower, 43 °C
- CCc1ccc(B(O)O)cc1 [4-ethylbenzeneboronic acid] — lower, 152 °C
- CCc1ccc(O)cc1 [4-ethylphenol] — lower, 47 °C
- CCc1ccc(OCC(=O)O)cc1 [4-ethylphenoxyacetic acid] — lower, 93 °C
- N#Cc1ccc(F)cc1[N+](=O)[O-] [4-fluoro-2-nitrobenzonitrile] — lower, 71 °C
- O=[N+]([O-])c1cc(F)ccc1O [4-fluoro-2-nitrophenol] — lower, 75 °C
- Cc1cc(N)ccc1F [4-fluoro-3-methylaniline] — lower, 34 °C
- Cc1cc(CC(=O)O)ccc1F [4-fluoro-3-methylphenylacetic acid] — lower, 106 °C
- O=S(=O)(Cl)Cc1ccc(F)cc1 [4-fluoro-alpha-toluenesulfonyl chloride] — lower, 60 °C
- OB(O)c1ccc(F)cc1 [4-fluorobenzeneboronic acid] — higher, 263 °C
- O=S(=O)(Cl)c1ccc(F)cc1 [4-fluorobenzenesulfonyl chloride] — lower, 37 °C
- N#Cc1ccc(F)cc1 [4-fluorobenzonitrile] — lower, 36 °C
- O=C(Cl)c1ccc(F)cc1 [4-fluorobenzoyl chloride] — lower, 10 °C
- N#CCS(=O)(=O)c1ccc(F)cc1 [4-fluorophenylsulfonylacetonitrile] — lower, 91 °C
- O=C(O)c1ccc(F)cc1O [4-fluorosalicylic acid] — lower, 188 °C
- O=CN1CCOCC1 [4-formylmorpholine] — lower, 22 °C
- O=Cc1ccc(OCC(=O)O)cc1 [4-formylphenoxyacetic acid] — lower, 196 °C
- COc1cc(C#N)ccc1O [4-hydroxy-3-methoxybenzonitrile] — lower, 87 °C
- COc1cc(CO)ccc1O [4-hydroxy-3-methoxybenzyl alcohol] — lower, 114 °C
- O=[N+]([O-])c1ccc(/C=C/c2ccc(O)cc2)cc1 [4-hydroxy-4'-nitrostilbene] — higher, 207 °C
- Oc1ccnc2ccc(C(F)(F)F)cc12 [4-hydroxy-6-(trifluoromethyl)quinoline] — higher, 267 °C
- CC(=O)c1ccc(O)cc1 [4-hydroxyacetophenone] — lower, 108 °C
- O=C(O)Cc1ccc(O)cc1 [4-hydroxyphenylacetic acid] — lower, 152 °C
- COc1ccc(I)cc1 [4-iodoanisole] — lower, 50 °C
- N#Cc1ccc(I)cc1 [4-iodobenzonitrile] — lower, 126 °C
- Cc1ccc(I)cc1 [4-iodotoluene] — lower, 34 °C
- CC(C)c1ccc(O)cc1 [4-isopropylphenol] — lower, 60 °C
- COc1ccc(N)c(C)c1 [4-methoxy-2-methylaniline] — lower, 14 °C
- COc1ccc(N)c([N+](=O)[O-])c1 [4-methoxy-2-nitroaniline] — lower, 127 °C
- COc1c(C)cc(B(O)O)cc1C [4-methoxy-3,5-dimethylbenzeneboronic acid] — higher, 237 °C
- COc1ccc(C(=O)O)cc1[N+](=O)[O-] [4-methoxy-3-nitrobenzoic acid] — lower, 188 °C
- COc1ccc(C=O)cc1 [4-methoxybenzaldehyde] — lower, 1 °C
- COc1ccc(C(N)=O)cc1 [4-methoxybenzamide] — lower, 166 °C
- COc1ccc(CN)cc1 [4-methoxybenzylamine] — lower, -10 °C
- COc1ccc(O)cc1 [4-methoxyphenol] — lower, 56 °C

With O=Cc1ccc(Cl)cc1 [4-chlorobenzaldehyde] the melting point was 46 °C and 48.5 °C and 47 °C.
